Consider one compound from patent publication US20250179022A1, “COMPOUND USED AS TYK2 INHIBITOR, PREPARATION METHOD THEREFOR, AND PHARMACEUTICAL USE THEREOF” (SHANGHAI ZHIGEN PHARMACEUTICAL & TECHNOLOGY CO. LTD., priority 2022, published 2025).

In brackets after ≈: the same amount, converted by molar mass.

A short description of data set [1]: Solubility in water (at pH=7). In kind it is physicochemical. An excerpt:
Test Example 6: Solubility of the Compounds of the Invention in Water (at pH=7)

Data set [2] in a line: In vivo pharmacokinetic experiments in Beagle dogs (oral). As to conditions: 2 mg/kg. Here is the method:
Experimental Methods: Healthy male Beagle dogs were randomly grouped into 3 […] in each group, and were given the test compounds orally. Before the gavage experiment, the dogs were fasted for 12 h, drank water freely, and were uniformly fed for 4 h after the administration of the drug. 0.083, 0.25, 0.5, 1.0, 2.0, 4.0, 6.0, 8.0, 10 and 24 h after administration; about 600 μL of blood was collected from the forelimb or hindlimb at the above set time points and placed in EDTA-K2 tubes, and the whole blood was collected and stored temporarily in an ice-water bath, and then centrifuged at least 3500 rpm for 10 min within 30 min, and the plasma was separated and frozen in a −70° C. refrigerator for testing.

The nature of data set [3]: In vivo pharmacokinetic experiment in rats (oral). Also on record: species or system SD rats. As to conditions: 5 mg/kg. On the procedure:
Experimental method: Healthy male SD rats were randomly grouped into 3 rats in each group and given the test compound orally. The rats were fasted for 12 h before the gavage experiment, and drank water freely, and were fed uniformly for 4 h after the administration of the compounds. Before (0 h) and 0.25, 0.5, 1.0, 2.0, 4.0, 6.0, 8.0 and 24 h after the administration of the test compounds, 0.2 mL of blood was collected from the jugular vein at the above set time points and placed in EDTA-K2 tubes, and the whole blood was collected and stored temporarily in an ice-water bath, and then centrifuged at 11,000 rpm for 5 min within 30 min, the plasma was separated, and frozen at −70° C. in a refrigerator for testing.

Compound `[2H]C([2H])([2H])NC(=O)c1nnc(NC(=O)C2CC2)cc1Nc1nc(N)c(Cl)cc1[S@@](C)(=O)=NC` [Example 28] registered a Solubility in data set [1] of 22 µg/mL (≈ 48.3 µM). In data set [2], the AUC is reported as 6684 ngh/mL and the F was found to be 117%. Moreover, in data set [2] (male, dog, plasma), the Cmax was 485 ng/mL, the MRT was 10.7 h and the half-life was 7.26 h. In data set [3], the AUC was 2644 ngh/mL and the F is 103.8%. In data set [3] (male, SD, rat, plasma), this compound gave a maximum concentration (Cmax) of 651 ng/mL, an MRT of 3.54 h and a half-life of 2.48 h.
